Laboratory results reported in patent US20240197890A1, “FLAVONE DERIVATIVES AND USES IN TARGETING CK2-MEDIATED DISEASES AND CONDITIONS” (Salk Institute for Biological Studies, priority 2020, published 2024).

Columns and labels:
NF-κB pS529 = assay: Immunofluorescence of NF-κB and NF-κB pS529 in activated astrocytes; assay type: cell-based, human; conditions: after 1 h
Description: Immunotluorescence. […] After treatment, cells were fixed with 4% paraformaldehyde solution for 20 min at room temperature and washed 3× with DPBS for 10 min each. The cells were permeabilized using 5% horse serum and 10% Triton X in DPBS for 15 min at room temperature and blocked with 5% horse serum in PBS for 30 min at room temperature. Cells were incubated with primary antibodies in blocking buffer either overnight at 4° C. or for 2 hours at room temperature. After incubation, cells were washed 3× with PBS, blocked using 5% horse serum in PBS for 30 min at room temperature, and incubated with Cy3 red-labeled or AF488 green-labeled secondary antibodies diluted in blocking buffer for 1 hour at room temperature. The cells were washed once with PBS for 10 min, then counter-stained with DAPI. The cells were washed 3× with PBS and mounted with glass coverslips and Immu-Mount solution. Images were obtained with the Zeiss fluorescent microscope. The following primary antibodies were used: rabbit anti-NF-κB (1:400; CST), mouse anti-phospho NF-κB S529 (20 ug/ml; Thermo Fisher), rabbit anti-CK2A1 (1:500; Bethyl), mouse anti-IKb alpha (1:400; CST), mouse anti-phospho IKb alpha (1:50; Santa Cruz), rabbit anti-phospho CK2A1 (1:25; Thermo Fisher), rabbit anti-phospho Cdc37 (1:50; Novus), mouse anti-phospho NF-κB S529 (1:25; R&D), rabbit anti-Cdc37 (1:100; CST), mouse anti-SQSTM1 (1:50; Santa Cruz), anti rabbit-phospho NF-κB S536 (1:1600; CST), anti rabbit-Akt (pan) (1:400; CST), anti mouse-phospho Akt S473 (1:500; Sigma).
To investigate the potential effects of CK2 activity on NF-κB, NF-κB and NF-κB pS529 were measured by immunofluorescence in activated astrocytes. […] At this timepoint, NF-κB pS529 levels were similar across all treatments, possibly as a result of slower turnover by pNF-κB species.

AKT pS473 = assay: Immunofluorescence of AKT pS473 in IL1β-stimulated primary astrocytes; assay type: cell-based; conditions: IL1-β for 5 h
Description: Immunotluorescence. […] After treatment, cells were fixed with 4% paraformaldehyde solution for 20 min at room temperature and washed 3× with DPBS for 10 min each. The cells were permeabilized using 5% horse serum and 10% Triton X in DPBS for 15 min at room temperature and blocked with 5% horse serum in PBS for 30 min at room temperature. Cells were incubated with primary antibodies in blocking buffer either overnight at 4° C. or for 2 hours at room temperature. After incubation, cells were washed 3× with PBS, blocked using 5% horse serum in PBS for 30 min at room temperature, and incubated with Cy3 red-labeled or AF488 green-labeled secondary antibodies diluted in blocking buffer for 1 hour at room temperature. The cells were washed once with PBS for 10 min, then counter-stained with DAPI. The cells were washed 3× with PBS and mounted with glass coverslips and Immu-Mount solution. Images were obtained with the Zeiss fluorescent microscope. […]

LC3-II = LC3-II in AD patient-derived induced neurons; assay type: cell-based, human; conditions: 24 h
Description: Western blotting. For drug treatment assays, cells were treated with vehicle (DMSO) or 20 μM compound and stimulated with IL1-B 10 ng/mL for 1 h, 6 h, or 24 h. Cells were dissociated with 1:1 Accutase:papain for 3 min at rt, pelleted for 5 min at 800 g, and washed twice with cold DPBS. Pellets were lysed with RIPA buffer (Sigma R0278) supplemented with Halt protease inhibitor cocktail (Thermo Fisher 78445) and clarified by centrifugation (16,000 g, 10 min, 4° C.). Protein concentration was determined by BCA assay (Thermo Fisher). Proteins were denatured in 1×LDS Buffer and 2.5% beta-mercaptoethanol (X) for 10 min at 70° C., separated on Bolt 4-12% Bis-Tris Plus polyacrylamide gels (Thermo Fisher), transferred to PVDF membranes using the iBlot 2 Dry Blotting System, and blocked with 0.1% casein-PBS (Bio-Rad) for 1 h at room temperature. The blots were incubated with primary antibodies overnight at 4° C. in PBS containing 0.1% casein and 0.2% Tween-20. […] The blots were imaged using the Odyssey CLx imaging system and blots were analyzed on the ImageStudio software (LI-COR).

Q: With `COc1cc(-c2cc(=O)c3c(O)cc(O)cc3o2)ccc1O` [CHR, chrysoeriol] as the compound, how does the “IL1-β-induced increase of NF-κB nuclear intensity” value (NF-κB pS529) read?
A: The value was “blocked”.

Q: And the “AKT pS473 levels” value (AKT pS473)?
A: The value was “reduced”.

Q: And the “LC3-II (marker of autophagy/mitophagy)” value (LC3-II)?
A: The value was “increased”.
